Values quoted from earlier work in patent US11160765B2, “Compositions and methods of treating fungal infections of the nails” (KBR Incorporated, priority 2018, dated 2021).

Tested on: Candida albicans

## C=CCSSCC=C [diallyl disulphide (DADS0, diallyl disulphide]
  proteinase, phospholipase secretion, and dimorphism in Candida albicans: significantly inhibit

## C=CCSCC=C [diallyl sulphide (DAS), diallyl sulphide]
  proteinase, phospholipase secretion, and dimorphism in Candida albicans: significantly inhibit
